From patent US10774097B2, “Boron compounds as inhibitors of lipoxygenase and the lipoxygenase pathway, and preparation and use thereof” (UNIVERSITÄT LEIPZIG, priority 2015, dated 2020) come the findings set out here.

Converted amounts (≈) assume the structure as drawn. Where two headings read alike, the source gives them in different places. Where only a bound is given, the exact number is not on record here.

In data set [1] the test system is CT26CL25. In words: Cytotoxicity crystal violet (CV) assay, CT26CL25. Type of data set: cell-based. The conditions noted are these: CV assay (bottom value). The method, then:
(§1) In order to determine the cytotoxicity towards various cancer cell lines, MTT and crystal violet (CV) assays were carried out. The MTT essay takes place as specified by T. Mosmann [T. Mosmann, J. Immunol. Methods, 1983, 65, 55], and the CV test takes place as specified by D. A. Flick et al. [D. A. Flick, G. E. Gifford, J. Immunol. Methods, 1984, 68, 167].
(§2) In these tests, the percentage of dead cells was analysed on the basis of the concentration of the inhibitors. The obtained IC50 value indicates the concentration of a particular inhibitor at which 50% of the analysed cells die off.
(§3) Meanwhile, in the crystal violet assay, the crystal violet dye can only diffuse through the perforated cell membranes of dead cells. In this case, the number of dyed cells represents the number of dead cells.
(§4) Three skin cancer cell lines (A375, B16, B16F10) and three colon cancer cell lines (CT26CL25, HCT116, SW480) were analysed. Primary fibroblasts from human lung tissue (MRC-5) were used as an example of healthy cells and thus as a negative control.
(§5) The top value for each cell represents the IC50 value in the MTT assay, and the bottom value represents the IC50 value in the CV assay (crystal violet).

Data set [2] relates to CT26CL25. In words: Cytotoxicity MTT assay, CT26CL25. Format: cell-based. The conditions noted are these: MTT assay (top value). The method, then:
as §1, §2
(§6) The proportion of living cells was determined by the MTT assay (3-(4,5-dimethylthiazolyl-2)-2,5-diphenyltetrazoliumbromide) and the crystal violet (CV) assay. In the MTT assay, the presence of NADH and NADPH is established. These two compounds are characteristic metabolism products in a functioning respiratory chain. NADH and NADPH reduce the MTT dye, thus leading to a change in colour, which can be measured and is thus directly proportional to the number of living cells.
as §4, §5

Data set [3] has as its system SW480. In words: Cytotoxicity MTT assay, SW480. Format: cell-based. To be noted: MTT assay (top value). On the procedure: as §1, §2, §6, §4, §5
Background: Tetrazolium assays rely on reduction of a dye to a coloured formazan, in cell work by metabolically active cells.

In the next data set the target is T1, 5-LOX (Homo sapiens, UniProt P09917).
T1 construct: endogenous in cells; host or cells: intact polymorphonuclear leukocytes isolated from blood
T1 sequence (P09917 1-674): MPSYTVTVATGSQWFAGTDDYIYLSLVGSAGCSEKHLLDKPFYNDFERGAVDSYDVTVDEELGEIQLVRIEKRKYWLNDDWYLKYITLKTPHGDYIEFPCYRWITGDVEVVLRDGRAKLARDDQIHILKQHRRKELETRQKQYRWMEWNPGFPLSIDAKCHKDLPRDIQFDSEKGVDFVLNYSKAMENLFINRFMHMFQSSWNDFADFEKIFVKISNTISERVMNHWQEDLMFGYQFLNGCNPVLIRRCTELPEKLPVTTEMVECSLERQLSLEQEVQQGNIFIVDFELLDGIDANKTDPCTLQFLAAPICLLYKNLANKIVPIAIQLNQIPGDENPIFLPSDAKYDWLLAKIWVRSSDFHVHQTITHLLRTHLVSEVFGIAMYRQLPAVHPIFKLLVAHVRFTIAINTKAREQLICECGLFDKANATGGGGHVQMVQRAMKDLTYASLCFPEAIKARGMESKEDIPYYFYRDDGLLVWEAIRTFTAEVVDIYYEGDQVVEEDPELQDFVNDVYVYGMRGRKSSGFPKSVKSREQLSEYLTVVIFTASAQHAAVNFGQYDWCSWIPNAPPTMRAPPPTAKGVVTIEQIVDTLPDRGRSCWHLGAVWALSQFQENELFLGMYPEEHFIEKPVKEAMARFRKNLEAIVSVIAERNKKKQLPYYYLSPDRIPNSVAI
The experiment in a line: Inhibition test: 5-LOX activity in intact polymorphonuclear leukocytes (arachidonic acid conversion, HPLC). Format: cell-based. To be noted: 5-LOX-FLAP enzyme system, 15 min at 37° C., read-out: IC50 value (at concentration). The method, then:
The 5-LOX activity of the cells was established on the basis of the concentration of inhibitor.
In this process, intact polymorphonuclear leukocytes were isolated from blood as specified in the known literature [C. Greiner et al., British Journal of Pharmacology, 2011, 164, 781-793]. The cells were grown on cell sheets until a confluence of 95% was reached, i.e. 95% of the cell sheets was covered with cells. Each cell sheet was then treated with 10 μl of a solution of the inhibitor at concentrations of 0.05 μM, 0.1 μM, 0.5 μM, 1 μM, 5 μM, 10 μM, 50 μM and 100 μM at 37° C. for 15 minutes. Each cell sheet was then treated with an arachidonic acid solution for 10 minutes. 10 μl of a 1:1 mixture of 2 mM of arachidonic acid and 250 μM of A23187 Ca^2+-ionophore solution in ethanol was used for this.
Conversion of a small amount of arachidonic acid is evidence of a strong inhibiting effect.

The subject of data set [4] is B16. The experiment in a line: Cytotoxicity MTT assay, B16. Format: cell-based. The conditions noted are these: MTT assay (top value). The method, then: as §1, §2, §6, §4, §5
Data set [5] can be described thus: Solubility tests in ethanol and DMSO. To be noted: solvent added until clear solution; for solubility: organic solvent or mixture, thermodynamic from solid. Type of data set: physicochemical. On the procedure: Solubility tests in ethanol and DMSO were carried out to determine the solubility. The amount of solvent required to obtain a clear solution was added to 4 mg of the compounds in an Eppendorf tube. The concentration of the solution was then determined on the basis of the mass of the compounds and the amount of solvent.

Data set [6] deals with A375. The experiment in a line: Cytotoxicity crystal violet (CV) assay, A375. To be noted: CV assay (bottom value). Type of data set: cell-based. The method, then: as §1, §2, §3, §4, §5
The subject of data set [7] is HCT116. In words: Cytotoxicity MTT assay, HCT116. Type of data set: cell-based. To be noted: MTT assay (top value). The method, then:
as §1, §2, §6, §4, §5

Data set [8] has as its system SW480. The experiment in a line: Cytotoxicity crystal violet (CV) assay, SW480. Format: cell-based. To be noted: CV assay (bottom value). The method, then:
as §1, §2, §3, §4, §5

Data set [9] has as its system A375. The experiment in a line: Cytotoxicity MTT assay, A375. Format: cell-based. On the procedure: as §1, §2, §6, §4, §5
The subject of data set [10] is B16. The experiment in a line: Cytotoxicity crystal violet (CV) assay, B16. The conditions noted are these: CV assay (bottom value). Type of data set: cell-based. The method, then:
as §1, §2, §3, §4, §5

For data set [11], the system named is primary fibroblasts (MRC-5). In words: Cytotoxicity MTT assay, MRC-5. Type of data set: cell-based, human. On the procedure:
as §1, §2, §6, §4, §5

The subject of data set [12] is HCT116. In words: Cytotoxicity crystal violet (CV) assay, HCT116. Format: cell-based. To be noted: CV assay (bottom value). The method, then: as §1, §2, §3, §4, §5
For data set [13], the system named is various cancer cell lines. In words: Cytotoxicity tests on cancer cell lines (summary in words). To be noted: comparison with phenyl-based compounds. The method, then:
as §1, §2, §4

The mark [14] stands for this setting: MTT assay (top value), read-out: IC50 A375.

By solubility is commonly meant the dissolved amount per volume that the medium holds.

On to “1-(7-Thiomethylquinolin-2-yl-1,7-dicarba-closo-dodecaboran(12)yl)-hexan-1-ol [Embodiment 5]”, for which the IC50 in the data set on CT26CL25 [1] amounted to 50 µM; in the data set on CT26CL25 [2], 46 µM; with SW480 [3] it was 33.1 µM; at 5-LOX it was 2.5 µM; with B16 [4] it was 50 µM; in the data set on A375 [6], 30.5 µM. In addition, the IC50 was 45 µM in the data set on HCT116 [7]; above 50 µM in the data set on SW480 [8]; 8 µM with A375 [9] (read-out: IC50 value for A375 cancer cells); above 50 µM in the data set on B16 [10]; 82 µM in data set [11] (read-out: IC50 value for healthy cells (MRC-5)); above 50 µM in the data set with HCT116 [12]. For the same molecule, in [5] (DMSO), the “Solubility in DMSO” value came out at 953.9 mM. In addition, in [5] (ethanol), the “Solubility in EtOH” value is 238.5 mM. Also, the “selectiveness between healthy cells and cancer cells” value in [11] (IC50 for healthy cells (MRC-5) divided by IC50 for cancer cells (A375)) was found to be 10.2.
As for “1-((7-Quinolin-2-ylmethoxy)-1,7-dicarba-closo-dodecaboran(12)yl)-hexan-1-ol [Embodiment 3]”, the “cytotoxicity towards cancer cell lines (in words)” value in data set [13] is on record as “considerably higher cytotoxicity”. At 5-LOX, the IC50 amounted to 1.4 µM. Further, the “Solubility in DMSO” value in data set [5] (DMSO) is 208.3 mM. In data set [5] (ethanol), the “Solubility in EtOH” value was determined as 86.8 mM.
As to “1-(Quinolin-2-ylmethoxy)-1,7-dicarba-closo-dodecaborane(12) [Comparative Example 1]”, the “cytotoxicity towards cancer cell lines (in words)” value in data set [13] was “insufficient cytotoxicity”. Moreover, the IC50 in the data set on CT26CL25 [1] is above 50 µM; in the data set on CT26CL25 [2], above 50 µM; with SW480 [3], above 50 µM; at 5-LOX it was 2.3 µM; in the data set on B16 [4] it was 47.4 µM; in the data set on A375 [6] it was above 50 µM. Also, the IC50 in the data set on HCT116 [7] was above 50 µM; in the data set on SW480 [8], above 50 µM; with A375 [9] (setting [14]), 50 µM; in the data set with B16 [10] it was 47.6 µM. Besides, in data set [5] (DMSO), the “Solubility in DMSO” value worked out at 432 mM. Also, the “Solubility in EtOH” value in [5] (ethanol) came to 72 mM.
Regarding “1-(Quinolin-2-ylmethyl)thio-1,7-dicarba-closo-dodecaborane(12) [Comparative Example 2]”, the “cytotoxicity towards cancer cell lines (in words)” value in data set [13] was “insufficient cytotoxicity”. The IC50 in the data set on CT26CL25 [1] was above 50 µM; in the data set with CT26CL25 [2], above 50 µM; at 5-LOX, 5.8 µM; in the data set with B16 [4] it was above 50 µM; in the data set on A375 [6], 34.8 µM; in the data set on HCT116 [7] it was above 50 µM. Further, the IC50 is above 50 µM in the data set with SW480 [8], 30 µM in the data set on A375 [9] (setting [14]), above 50 µM with B16 [10] and above 50 µM in the data set on HCT116 [12]. Further, the “Solubility in DMSO” value in data set [5] (DMSO) is 600 mM. Moreover, the “Solubility in EtOH” value in data set [5] (ethanol) was determined as 67 mM.
As to “1-Quinolin-2-ylmethoxy-1,12-dicarba-closo-dodecaborane(12) [Comparative Example 3]”, the IC50 with CT26CL25 [1] is 50 µM; with CT26CL25 [2], 35 µM; in the data set with SW480 [3], 29 µM; at 5-LOX it was 1.4 µM; in the data set with B16 [4], 45.7 µM; with A375 [6], 26.9 µM. Moreover, the IC50 in the data set on A375 [9] (setting [14]) is 8.8 µM; in the data set with B16 [10] it was 46 µM; in [11] (single value in cell, unit inferred, top value = MTT assay, read-out: IC50 MRC-5), above 100 µM; with HCT116 [12], above 50 µM. For the same molecule, the “Solubility in DMSO” value in data set [5] (DMSO) was 208.3 mM. Moreover, in data set [5] (ethanol), the “Solubility in EtOH” value amounted to 86.8 mM.
With `CCCCCC(O)c1cccc(OCc2ccc3ccccc3n2)c1` (stereo not drawn) [Rev-5901, reference compound], the IC50 is above 50 µM in the data set with CT26CL25 [1]; 28.1 µM in the data set on CT26CL25 [2]; 50 µM in the data set on SW480 [3] (Homo sapiens, SW480); 27.6 µM with B16 [4] (Mus musculus, B16); 46.5 µM with A375 [6] (Homo sapiens, A-375); 50 µM with HCT116 [7] (Homo sapiens, HCT-116). The IC50 is above 50 µM with SW480 [8] (Homo sapiens, SW480); 25 µM in the data set with A375 [9] (Homo sapiens, A-375, MTT assay (top value), read-out: IC50 A375); 25 to 50 µM in the data set on A375 [9] (Homo sapiens, A-375, depending on the method of analysis used (MTT/CV), read-out: IC50 values towards melanoma cancer cell line A375); 45 µM with B16 [10] (Mus musculus, B16); 70.1 µM in [11] (Homo sapiens, MRC5, MTT assay (top value), healthy cells, read-out: IC50 MRC-5); 70 µM in [11] (Homo sapiens, MRC5, read-out: IC50 value for healthy cells (MRC-5)). The molecule also came in with an IC50 in the data set on HCT116 [12] (Homo sapiens, HCT-116) of 50 µM. Further, the solubility came to 29.8 mM (≈ 10000 µg/mL) in data set [5] (DMSO, read-out: Solubility in DMSO) and 29.7 mM (≈ 9960 µg/mL) in [5] (ethanol, read-out: Solubility in EtOH).
